Measurements reported in ChEMBL document CHEMBL6121038, “Design and Synthesis of Hederagenin Derivatives for the Treatment of Sepsis by Targeting TAK1 and Regulating the TAK1-NF-κB/MAPK Signaling” (J Med Chem, 2025).

Key:
RAW264.7 [1] = assay: Antiinflammatory activity in LPS-induced mouse RAW264.7 cells assessed as inhibition of TNF-alpha level at 20 uM incubated for 24 hrs by ELISA method relative to control; assay type: functional
RAW264.7 [2] = assay: Cytotoxicity against mouse RAW264.7 cells assessed as cell viability at 40 uM measured after 24 hrs by MTT assay; assay type: toxicity, cell-based; details: raw264.7, 24 h
RAW264.7 [3] = assay: Antiinflammatory activity in LPS-induced mouse RAW264.7 cells assessed as inhibition of IL-6 level at 20 uM incubated for 24 hrs by ELISA method relative to control; assay type: functional

CCOC(=O)c1noc2c1C[C@@]1(C)[C@@H](CC[C@]3(C)[C@@H]1CC=C1[C@@H]4CC(C)(C)CC[C@]4(C(=O)OCc4ccccc4)CC[C@]13C)[C@]2(C)COC(=O)c1cc2ccccc2[nH]1
inhibition at 20 µM (RAW264.7 [1]): 9.1% | Activity (RAW264.7 [2]): Non-toxic | inhibition at 20 µM (RAW264.7 [3]): 15%

CCOC(=O)c1noc2c1C[C@@]1(C)[C@@H](CC[C@]3(C)[C@@H]1CC=C1[C@@H]4CC(C)(C)CC[C@]4(C(=O)OCc4ccccc4)CC[C@]13C)[C@]2(C)COC(=O)[C@H](CCSC)NC(=O)OC(C)(C)C
inhibition at 20 µM (RAW264.7 [1]): 15.3% | Activity (RAW264.7 [2]): Non-toxic | inhibition at 20 µM (RAW264.7 [3]): 11.7%

CCOC(=O)c1noc2c1C[C@@]1(C)[C@@H](CC[C@]3(C)[C@@H]1CC=C1[C@@H]4CC(C)(C)CC[C@]4(C(=O)OCc4ccccc4)CC[C@]13C)[C@]2(C)COC(=O)[C@H](CCC(=O)OC)NC(=O)OC(C)(C)C
inhibition at 20 µM (RAW264.7 [1]): 60% | Activity (RAW264.7 [2]): Non-toxic | inhibition at 20 µM (RAW264.7 [3]): 55.4%

CCOC(=O)c1noc2c1C[C@@]1(C)[C@@H](CC[C@]3(C)[C@@H]1CC=C1[C@@H]4CC(C)(C)CC[C@]4(C(=O)OCc4ccccc4)CC[C@]13C)[C@]2(C)COC(=O)c1ccccc1C(=O)N1CCN(C(C)C)CC1
inhibition at 20 µM (RAW264.7 [1]): 22.9% | Activity (RAW264.7 [2]): Non-toxic | inhibition at 20 µM (RAW264.7 [3]): 11.4%

CCOC(=O)c1noc2c1C[C@@]1(C)[C@@H](CC[C@]3(C)[C@@H]1CC=C1[C@@H]4CC(C)(C)CC[C@]4(C(=O)OCc4ccccc4)CC[C@]13C)[C@]2(C)COC(=O)[C@H](CC(C)C)NC(=O)OC(C)(C)C
inhibition at 20 µM (RAW264.7 [1]): 7.45% | Activity (RAW264.7 [2]): Non-toxic | inhibition at 20 µM (RAW264.7 [3]): 4.25%

CCOC(=O)c1noc2c1C[C@@]1(C)[C@@H](CC[C@]3(C)[C@@H]1CC=C1[C@@H]4CC(C)(C)CC[C@]4(C(=O)OCc4ccccc4)CC[C@]13C)[C@]2(C)COC(=O)CCC(=O)N1CCCCC1
inhibition at 20 µM (RAW264.7 [1]): 61% | Activity (RAW264.7 [2]): Non-toxic | inhibition at 20 µM (RAW264.7 [3]): 50.6%

CCOC(=O)c1noc2c1C[C@@]1(C)[C@@H](CC[C@]3(C)[C@@H]1CC=C1[C@@H]4CC(C)(C)CC[C@]4(C(=O)OCc4ccccc4)CC[C@]13C)[C@]2(C)COC(=O)CCC(=O)N[C@@H](Cc1ccccc1)C(=O)OC
inhibition at 20 µM (RAW264.7 [1]): 31.7% | Activity (RAW264.7 [2]): Non-toxic | inhibition at 20 µM (RAW264.7 [3]): 25%

CCOC(=O)c1noc2c1C[C@@]1(C)[C@@H](CC[C@]3(C)[C@@H]1CC=C1[C@@H]4CC(C)(C)CC[C@]4(C(=O)OCc4ccccc4)CC[C@]13C)[C@]2(C)COC(=O)CCC(=O)N1CCN(CC)CC1
inhibition at 20 µM (RAW264.7 [1]): 75.4% | Activity (RAW264.7 [2]): Non-toxic | inhibition at 20 µM (RAW264.7 [3]): 66.3%

CCOC(=O)c1noc2c1C[C@@]1(C)[C@@H](CC[C@]3(C)[C@@H]1CC=C1[C@@H]4CC(C)(C)CC[C@]4(C(=O)OCc4ccccc4)CC[C@]13C)[C@]2(C)COC(=O)CCc1c[nH]c2ccccc12
inhibition at 20 µM (RAW264.7 [1]): 15.8% | Activity (RAW264.7 [2]): Non-toxic | inhibition at 20 µM (RAW264.7 [3]): 18.9%

CCOC(=O)c1noc2c1C[C@@]1(C)[C@@H](CC[C@]3(C)[C@@H]1CC=C1[C@@H]4CC(C)(C)CC[C@]4(C(=O)OCc4ccccc4)CC[C@]13C)[C@]2(C)COC(=O)CCSSCCC(=O)N1CCN(CC)CC1
inhibition at 20 µM (RAW264.7 [1]): 22.7% | inhibition at 20 µM (RAW264.7 [3]): 26.8%

CCOC(=O)c1noc2c1C[C@@]1(C)[C@@H](CC[C@]3(C)[C@@H]1CC=C1[C@@H]4CC(C)(C)CC[C@]4(C(=O)OCc4ccccc4)CC[C@]13C)[C@]2(C)COC(=O)c1ccccc1C(=O)N[C@@H](CCC(=O)OC)C(=O)OC
inhibition at 20 µM (RAW264.7 [1]): 14.8% | Activity (RAW264.7 [2]): Non-toxic | inhibition at 20 µM (RAW264.7 [3]): 8.65%

CCOC(=O)c1noc2c1C[C@@]1(C)[C@@H](CC[C@]3(C)[C@@H]1CC=C1[C@@H]4CC(C)(C)CC[C@]4(C(=O)OCc4ccccc4)CC[C@]13C)[C@]2(C)COC(=O)CCC(=O)N1CCN(C(C)C)CC1
inhibition at 20 µM (RAW264.7 [1]): 78.1% | Activity (RAW264.7 [2]): Non-toxic | inhibition at 20 µM (RAW264.7 [3]): 68.6%

CCOC(=O)c1noc2c1C[C@@]1(C)[C@@H](CC[C@]3(C)[C@@H]1CC=C1[C@@H]4CC(C)(C)CC[C@]4(C(=O)OCc4ccccc4)CC[C@]13C)[C@]2(C)COC(=O)CCC(=O)N[C@@H](CC(C)C)C(=O)OC
inhibition at 20 µM (RAW264.7 [1]): 33.1% | Activity (RAW264.7 [2]): Non-toxic | inhibition at 20 µM (RAW264.7 [3]): 25.7%

CCOC(=O)c1noc2c1C[C@@]1(C)[C@@H](CC[C@]3(C)[C@@H]1CC=C1[C@@H]4CC(C)(C)CC[C@]4(C(=O)OCc4ccccc4)CC[C@]13C)[C@]2(C)COC(=O)CCSSCCC(=O)N1CCCCC1
inhibition at 20 µM (RAW264.7 [1]): 14.2% | Activity (RAW264.7 [2]): Non-toxic | inhibition at 20 µM (RAW264.7 [3]): 24.5%

CCOC(=O)c1noc2c1C[C@@]1(C)[C@@H](CC[C@]3(C)[C@@H]1CC=C1[C@@H]4CC(C)(C)CC[C@]4(C(=O)OCc4ccccc4)CC[C@]13C)[C@]2(C)COC(=O)CCC(=O)N[C@@H](CCC(=O)OC)C(=O)OC
inhibition at 20 µM (RAW264.7 [1]): 33.6% | Activity (RAW264.7 [2]): Non-toxic | inhibition at 20 µM (RAW264.7 [3]): 22%

CCOC(=O)c1noc2c1C[C@@]1(C)[C@@H](CC[C@]3(C)[C@@H]1CC=C1[C@@H]4CC(C)(C)CC[C@]4(C(=O)OCc4ccccc4)CC[C@]13C)[C@]2(C)COC(=O)CCn1cccc1
inhibition at 20 µM (RAW264.7 [1]): 52.5% | Activity (RAW264.7 [2]): Non-toxic | inhibition at 20 µM (RAW264.7 [3]): 46.2%

CCOC(=O)c1noc2c1C[C@@]1(C)[C@@H](CC[C@]3(C)[C@@H]1CC=C1[C@@H]4CC(C)(C)CC[C@]4(C(=O)OCc4ccccc4)CC[C@]13C)[C@]2(C)COC(=O)[C@H](Cc1ccccc1)NC(=O)OC(C)(C)C
inhibition at 20 µM (RAW264.7 [1]): 59.3% | Activity (RAW264.7 [2]): Non-toxic | inhibition at 20 µM (RAW264.7 [3]): 44.9%

CCOC(=O)c1noc2c1C[C@@]1(C)[C@@H](CC[C@]3(C)[C@@H]1CC=C1[C@@H]4CC(C)(C)CC[C@]4(C(=O)OCc4ccccc4)CC[C@]13C)[C@]2(C)COC(=O)c1cnccn1
inhibition at 20 µM (RAW264.7 [1]): 8.27% | Activity (RAW264.7 [2]): Non-toxic | inhibition at 20 µM (RAW264.7 [3]): 5.92%

CCOC(=O)c1noc2c1C[C@@]1(C)[C@@H](CC[C@]3(C)[C@@H]1CC=C1[C@@H]4CC(C)(C)CC[C@]4(C(=O)OCc4ccccc4)CC[C@]13C)[C@]2(C)COC(=O)CCC(=O)N[C@@H](CC(=O)OC)C(=O)OC
inhibition at 20 µM (RAW264.7 [1]): 54.3% | Activity (RAW264.7 [2]): Non-toxic | inhibition at 20 µM (RAW264.7 [3]): 37.6%

CCOC(=O)c1noc2c1C[C@@]1(C)[C@@H](CC[C@]3(C)[C@@H]1CC=C1[C@@H]4CC(C)(C)CC[C@]4(C(=O)OCc4ccccc4)CC[C@]13C)[C@]2(C)COC(=O)CCSSCCC(=O)N[C@@H](CC(=O)OC)C(=O)OC
inhibition at 20 µM (RAW264.7 [1]): 7.53% | Activity (RAW264.7 [2]): Non-toxic | inhibition at 20 µM (RAW264.7 [3]): 6.08%

CCOC(=O)c1noc2c1C[C@@]1(C)[C@@H](CC[C@]3(C)[C@@H]1CC=C1[C@@H]4CC(C)(C)CC[C@]4(C(=O)OCc4ccccc4)CC[C@]13C)[C@]2(C)COC(=O)CCC(=O)N[C@H](CCSC)C(=O)OC
inhibition at 20 µM (RAW264.7 [1]): 52.2% | Activity (RAW264.7 [2]): Non-toxic | inhibition at 20 µM (RAW264.7 [3]): 44.6%
